± gives the expanded uncertainty stated by the source. One block for each compound: values may come before it.
Conditions: Liquid; for mass density: 303.15 K, 101.33 kPa, Vibrating tube method; for vapor or sublimation pressure: Ebulliometric method (Recirculating still)

Compound: CSSC [2,3-dithiabutane]
mass density: 1051.14 ± 0.14 kg/m3
vapor or sublimation pressure (353.42 K): 40 ± 0.13 kPa
vapor or sublimation pressure (382.87 K): 101.33 ± 0.14 kPa

Compound: CO [methanol]
mass density: 781.81 ± 0.15 kg/m3
vapor or sublimation pressure (315.8 K): 40 ± 0.15 kPa
vapor or sublimation pressure (337.97 K): 101.33 ± 0.15 kPa

Compound: CCCO [propan-1-ol]
mass density: 795.54 ± 0.15 kg/m3
vapor or sublimation pressure (347.65 K): 40 ± 0.15 kPa
vapor or sublimation pressure (370.23 K): 101.33 ± 0.15 kPa

Next, values leading:

mass density: 780.78 ± 0.15 kg/m3
vapor or sublimation pressure (329.63 K): 40 ± 0.15 kPa
vapor or sublimation pressure (351.51 K): 101.33 ± 0.15 kPa
Compound: CCO [ethanol]

mass density: 801.92 ± 0.14 kg/m3
vapor or sublimation pressure (366.81 K): 40 ± 0.14 kPa
vapor or sublimation pressure (390.72 K): 101.33 ± 0.14 kPa
Compound: CCCCO [butan-1-ol]

Source: the NIST ThermoML archive (doi:10.1021/acs.jced.7b00078)
